Measured values reported in patent US12043630B2, “Polymorphic form of TG02 for treating cancer” (Cothera Bioscience, Inc., priority 2017, dated 2024).
Counter-ions that a name gives are not always drawn. Blank lines part the entries; values can stand above or below the compound they belong to.

What was measured:
[1] = Storage at elevated temperature and relative humidity, re-analysis by XRPD; type: physicochemical; settings: for XRPD following storage at elevated temperatures and relative humidity: 28 days
Source text: X-ray Powder Diffraction (XRPD or PXRD) diffractograms were collected on a Bruker AXS C2 GADDS, Bruker AXS DB Advance, PANalytical Empyrean, or similar diffractometer using Cu Kα radiation.
Proton NMR was consistent with the proposed structure. However, as the methylene protons of the citric acid overlapped with the D6-DMSO reference peak, the stoichiometric equivalence of citrate acid is slightly offset. […] Differential scanning calorimetry thermal events included a single broad endotherm at 204.5° C. (366.9 J/g).
Proton NMR analysis was consistent with the proposed structure, although there was overlap of the methylene protons of the citrate and the D6-DMSO reference peak. […] (327.7 J/g).
These additional peaks remained throughout the 28 days storage period. This may be caused by dehydration of the hydrate. Proton NMR analysis was consistent with the proposed structure, although there was overlap of the methylene protons of the citrate and the D6-DMSO reference peak. […] Differential scanning calorimetry consisted of a broad, asymmetrical endotherm between 25-115° C. (70.2 J/g) followed by a large endotherm at 186.0° C. (313.4 J/g), possibly due to the sample melt and dissolution of the salt. […] Water content was determined by Karl Fischer analysis to be 3.3%, equating to 1 molar equivalent of water.

[2] = Gravimetric Vapour Sorption (GVS); type: physicochemical; settings: for Hygroscopicity by GVS analysis / GVS uptake: 25° C.; for GVS uptake: between 0-90% RH
Procedure: Sorption isotherms were obtained using a SMS DVS Intrinsic moisture sorption analyser, controlled by DVS Intrinsic Control software. The sample temperature was maintained at 25° C. by the instrument controls. The humidity was controlled by mixing streams of dry and wet nitrogen, with a total flow rate of 200 ml/min. The relative humidity was measured by a calibrated Rotronic probe (dynamic range of 1.0-100% RH), located near the sample. The weight change, (mass relaxation) of the sample as a function of % RH was constantly monitored by a microbalance (accuracy±0.005 mg).
Typically, 5-30 mg of sample was placed in a tared mesh stainless steel basket under ambient conditions. The sample was loaded and unloaded at 40% RH and 25° C. (typical room conditions). A moisture sorption isotherm was performed as outlined below (2 scans per complete cycle). The standard isotherm was performed at 25° C. at 10% RH intervals over a 0-90% RH range. Typically, a double cycle (4 scans) was carried out. Data analysis was carried out within Microsoft Excel using the DVS Analysis Suite.
The sample was recovered after completion of the isotherm and re-analysed by XRPD.

[3] = Thermodynamic Aqueous Solubility; type: physicochemical; settings: aqueous media; for Thermodynamic solubility: 25° C., 24 hours
Procedure: Aqueous solubility was determined by suspending sufficient compound in relevant media to give a maximum final concentration of ≥10 mg/ml of the parent freeform of the compound. The suspension was equilibrated at 25° C., on a Heidolph plate shaker set to 750 rpm for 24 hours. The pH of the saturated solution was then measured and the suspension filtered through a glass fibre C filter (particle retention 1.2 μm) and diluted appropriately. Quantitation was by HPLC with reference to a standard solution of approximately 0.15 mg/ml in DMSO. Different volumes of the standard, diluted and undiluted sample solutions were injected. The solubility was calculated using the peak areas determined by integration of the peak found at the same retention time as the principal peak in the standard injection.

CDK1 = CDK1 (Homo sapiens, UniProt P06493); settings: cited from earlier work
Sequence of CDK1 (P06493 whole entry): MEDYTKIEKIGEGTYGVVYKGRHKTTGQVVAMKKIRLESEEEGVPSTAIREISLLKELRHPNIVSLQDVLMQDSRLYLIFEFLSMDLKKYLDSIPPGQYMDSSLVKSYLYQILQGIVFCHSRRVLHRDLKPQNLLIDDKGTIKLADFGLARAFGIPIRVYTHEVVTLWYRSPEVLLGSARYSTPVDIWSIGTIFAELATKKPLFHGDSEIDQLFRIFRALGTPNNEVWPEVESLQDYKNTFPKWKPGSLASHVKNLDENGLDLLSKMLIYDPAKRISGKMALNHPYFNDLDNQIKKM
Sequence of CDK1 (P14635 whole entry partner): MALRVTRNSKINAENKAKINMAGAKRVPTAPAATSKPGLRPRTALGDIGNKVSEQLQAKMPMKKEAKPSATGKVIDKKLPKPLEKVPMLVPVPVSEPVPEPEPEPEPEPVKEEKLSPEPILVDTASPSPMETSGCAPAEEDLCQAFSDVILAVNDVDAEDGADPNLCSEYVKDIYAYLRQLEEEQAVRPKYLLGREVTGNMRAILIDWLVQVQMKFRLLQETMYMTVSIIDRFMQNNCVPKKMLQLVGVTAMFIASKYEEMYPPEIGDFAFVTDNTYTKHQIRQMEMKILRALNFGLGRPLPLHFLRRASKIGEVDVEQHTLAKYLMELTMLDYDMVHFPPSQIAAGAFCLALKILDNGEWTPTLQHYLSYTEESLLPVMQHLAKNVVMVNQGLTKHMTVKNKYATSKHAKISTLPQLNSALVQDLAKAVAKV

CDK2 = CDK2 (Homo sapiens, UniProt P24941); settings: cited from earlier work
CDK5 = CDK5 (Homo sapiens, UniProt Q00535); settings: cited from earlier work
Sequence of CDK5 (Q00535 whole entry): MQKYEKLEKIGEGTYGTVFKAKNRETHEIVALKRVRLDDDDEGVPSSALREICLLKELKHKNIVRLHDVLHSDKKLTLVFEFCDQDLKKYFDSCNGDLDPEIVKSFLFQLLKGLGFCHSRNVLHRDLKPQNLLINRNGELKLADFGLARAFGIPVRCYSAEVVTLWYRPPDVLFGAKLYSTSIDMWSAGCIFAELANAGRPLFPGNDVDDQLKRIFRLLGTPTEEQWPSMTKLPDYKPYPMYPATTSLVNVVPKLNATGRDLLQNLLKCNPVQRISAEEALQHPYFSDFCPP
Sequence of CDK5 (Q15078 whole entry partner): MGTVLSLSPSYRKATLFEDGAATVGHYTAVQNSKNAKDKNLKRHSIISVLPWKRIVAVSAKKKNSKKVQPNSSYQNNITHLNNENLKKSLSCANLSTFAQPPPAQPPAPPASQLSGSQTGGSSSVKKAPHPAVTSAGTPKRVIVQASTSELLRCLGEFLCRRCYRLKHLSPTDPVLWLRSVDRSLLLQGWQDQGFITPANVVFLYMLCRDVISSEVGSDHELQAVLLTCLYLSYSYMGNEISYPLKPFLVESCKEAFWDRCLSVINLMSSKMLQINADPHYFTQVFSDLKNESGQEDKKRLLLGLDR

CDK7 = CDK7 (Homo sapiens, UniProt P50613); settings: cited from earlier work
Sequence of CDK7 (P50613 whole entry): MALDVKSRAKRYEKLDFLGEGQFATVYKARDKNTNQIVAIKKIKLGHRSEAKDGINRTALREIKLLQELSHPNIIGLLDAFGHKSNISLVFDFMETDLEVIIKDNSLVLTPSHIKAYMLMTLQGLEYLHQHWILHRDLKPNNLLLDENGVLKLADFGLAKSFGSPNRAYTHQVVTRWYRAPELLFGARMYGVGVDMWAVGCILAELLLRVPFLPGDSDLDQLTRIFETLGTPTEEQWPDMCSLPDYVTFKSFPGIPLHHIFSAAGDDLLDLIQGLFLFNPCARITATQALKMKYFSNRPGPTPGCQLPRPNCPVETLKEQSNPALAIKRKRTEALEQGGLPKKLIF
Sequence of CDK7 (P51946 whole entry partner): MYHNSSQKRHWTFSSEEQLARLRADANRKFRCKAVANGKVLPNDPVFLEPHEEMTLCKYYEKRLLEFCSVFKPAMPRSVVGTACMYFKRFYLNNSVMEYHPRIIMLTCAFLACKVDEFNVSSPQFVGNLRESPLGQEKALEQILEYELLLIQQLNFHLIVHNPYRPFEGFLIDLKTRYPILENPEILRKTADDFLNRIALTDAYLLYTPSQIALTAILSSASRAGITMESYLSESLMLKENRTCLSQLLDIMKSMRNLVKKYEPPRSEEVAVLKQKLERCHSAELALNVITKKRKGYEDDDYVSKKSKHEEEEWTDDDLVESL
Sequence of CDK7 (P51948 whole entry partner): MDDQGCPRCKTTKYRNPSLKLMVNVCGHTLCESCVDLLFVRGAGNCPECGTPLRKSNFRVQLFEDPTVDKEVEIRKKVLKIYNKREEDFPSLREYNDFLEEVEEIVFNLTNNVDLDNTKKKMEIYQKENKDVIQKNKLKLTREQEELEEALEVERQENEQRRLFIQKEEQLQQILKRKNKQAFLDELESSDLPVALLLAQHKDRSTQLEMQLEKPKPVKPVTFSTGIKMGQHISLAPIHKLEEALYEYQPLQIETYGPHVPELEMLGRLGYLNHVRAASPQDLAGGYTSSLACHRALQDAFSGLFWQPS

CDK9 = CDK9 (Homo sapiens, UniProt P50750); settings: cited from earlier work
Sequence of CDK9 (P50750 whole entry): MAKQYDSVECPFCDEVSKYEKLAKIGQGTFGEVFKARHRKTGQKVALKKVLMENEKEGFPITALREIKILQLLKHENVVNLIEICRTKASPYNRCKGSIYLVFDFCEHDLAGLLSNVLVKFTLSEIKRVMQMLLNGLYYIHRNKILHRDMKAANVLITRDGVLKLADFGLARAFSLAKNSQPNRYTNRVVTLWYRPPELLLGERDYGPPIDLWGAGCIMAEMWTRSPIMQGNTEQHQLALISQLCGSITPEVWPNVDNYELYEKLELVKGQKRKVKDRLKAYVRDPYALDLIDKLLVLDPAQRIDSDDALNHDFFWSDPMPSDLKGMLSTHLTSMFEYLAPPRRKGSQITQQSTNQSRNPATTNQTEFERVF
Sequence of CDK9 (O60563 whole entry partner): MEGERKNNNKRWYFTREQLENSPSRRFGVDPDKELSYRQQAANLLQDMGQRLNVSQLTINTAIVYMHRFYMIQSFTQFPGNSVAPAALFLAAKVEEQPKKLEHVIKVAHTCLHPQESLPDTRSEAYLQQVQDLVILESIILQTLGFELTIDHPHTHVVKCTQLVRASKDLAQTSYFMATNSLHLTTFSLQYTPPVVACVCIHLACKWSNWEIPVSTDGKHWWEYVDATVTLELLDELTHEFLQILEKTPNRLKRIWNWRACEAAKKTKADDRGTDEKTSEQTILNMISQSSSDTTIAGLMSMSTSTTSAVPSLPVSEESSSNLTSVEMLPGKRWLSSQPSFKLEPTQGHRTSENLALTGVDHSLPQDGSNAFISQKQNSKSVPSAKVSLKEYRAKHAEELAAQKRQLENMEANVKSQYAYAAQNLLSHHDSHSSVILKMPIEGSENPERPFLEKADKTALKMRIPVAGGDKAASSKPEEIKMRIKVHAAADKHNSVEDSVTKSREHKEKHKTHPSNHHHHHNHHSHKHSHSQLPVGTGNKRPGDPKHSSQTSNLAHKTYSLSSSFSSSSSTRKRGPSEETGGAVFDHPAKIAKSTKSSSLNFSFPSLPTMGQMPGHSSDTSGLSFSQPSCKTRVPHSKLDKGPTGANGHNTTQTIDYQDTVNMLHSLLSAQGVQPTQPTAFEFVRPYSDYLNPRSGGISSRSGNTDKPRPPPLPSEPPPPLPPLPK

JAK2 = JAK2 (Homo sapiens, UniProt O60674); settings: cited from earlier work
Sequence of JAK2 (O60674 whole entry): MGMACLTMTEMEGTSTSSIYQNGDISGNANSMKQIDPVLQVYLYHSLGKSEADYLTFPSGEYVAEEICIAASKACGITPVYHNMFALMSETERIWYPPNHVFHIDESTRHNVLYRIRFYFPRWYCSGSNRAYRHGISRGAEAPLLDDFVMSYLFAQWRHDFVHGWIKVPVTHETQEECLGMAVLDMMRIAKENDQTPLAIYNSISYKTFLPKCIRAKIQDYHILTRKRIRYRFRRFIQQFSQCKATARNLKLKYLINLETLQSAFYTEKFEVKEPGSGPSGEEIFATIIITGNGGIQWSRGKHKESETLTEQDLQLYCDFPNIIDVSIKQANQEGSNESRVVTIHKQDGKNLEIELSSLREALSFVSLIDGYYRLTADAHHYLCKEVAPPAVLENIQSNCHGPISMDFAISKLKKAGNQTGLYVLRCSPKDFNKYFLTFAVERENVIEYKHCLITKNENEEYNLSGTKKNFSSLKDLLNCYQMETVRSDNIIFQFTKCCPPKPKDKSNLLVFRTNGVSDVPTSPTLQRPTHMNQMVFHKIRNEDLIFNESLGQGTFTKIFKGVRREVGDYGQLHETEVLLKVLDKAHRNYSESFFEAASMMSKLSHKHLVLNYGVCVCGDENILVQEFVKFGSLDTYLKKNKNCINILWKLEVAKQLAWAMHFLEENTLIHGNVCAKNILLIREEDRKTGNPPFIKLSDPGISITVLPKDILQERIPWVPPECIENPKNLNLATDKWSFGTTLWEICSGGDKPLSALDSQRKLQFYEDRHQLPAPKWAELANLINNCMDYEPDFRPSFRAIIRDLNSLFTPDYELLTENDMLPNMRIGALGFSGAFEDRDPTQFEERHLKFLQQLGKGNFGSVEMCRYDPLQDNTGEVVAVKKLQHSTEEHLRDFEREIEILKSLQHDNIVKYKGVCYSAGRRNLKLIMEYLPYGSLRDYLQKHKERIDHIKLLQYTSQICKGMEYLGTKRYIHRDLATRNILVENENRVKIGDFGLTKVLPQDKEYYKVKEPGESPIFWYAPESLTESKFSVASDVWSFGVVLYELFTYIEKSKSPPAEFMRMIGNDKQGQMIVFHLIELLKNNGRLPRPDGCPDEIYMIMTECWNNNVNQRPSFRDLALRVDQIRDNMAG

FLT3 = biological target: T1, FLT3 (Homo sapiens, UniProt P36888); settings: cited from earlier work
T1 sequence (P36888 27-993): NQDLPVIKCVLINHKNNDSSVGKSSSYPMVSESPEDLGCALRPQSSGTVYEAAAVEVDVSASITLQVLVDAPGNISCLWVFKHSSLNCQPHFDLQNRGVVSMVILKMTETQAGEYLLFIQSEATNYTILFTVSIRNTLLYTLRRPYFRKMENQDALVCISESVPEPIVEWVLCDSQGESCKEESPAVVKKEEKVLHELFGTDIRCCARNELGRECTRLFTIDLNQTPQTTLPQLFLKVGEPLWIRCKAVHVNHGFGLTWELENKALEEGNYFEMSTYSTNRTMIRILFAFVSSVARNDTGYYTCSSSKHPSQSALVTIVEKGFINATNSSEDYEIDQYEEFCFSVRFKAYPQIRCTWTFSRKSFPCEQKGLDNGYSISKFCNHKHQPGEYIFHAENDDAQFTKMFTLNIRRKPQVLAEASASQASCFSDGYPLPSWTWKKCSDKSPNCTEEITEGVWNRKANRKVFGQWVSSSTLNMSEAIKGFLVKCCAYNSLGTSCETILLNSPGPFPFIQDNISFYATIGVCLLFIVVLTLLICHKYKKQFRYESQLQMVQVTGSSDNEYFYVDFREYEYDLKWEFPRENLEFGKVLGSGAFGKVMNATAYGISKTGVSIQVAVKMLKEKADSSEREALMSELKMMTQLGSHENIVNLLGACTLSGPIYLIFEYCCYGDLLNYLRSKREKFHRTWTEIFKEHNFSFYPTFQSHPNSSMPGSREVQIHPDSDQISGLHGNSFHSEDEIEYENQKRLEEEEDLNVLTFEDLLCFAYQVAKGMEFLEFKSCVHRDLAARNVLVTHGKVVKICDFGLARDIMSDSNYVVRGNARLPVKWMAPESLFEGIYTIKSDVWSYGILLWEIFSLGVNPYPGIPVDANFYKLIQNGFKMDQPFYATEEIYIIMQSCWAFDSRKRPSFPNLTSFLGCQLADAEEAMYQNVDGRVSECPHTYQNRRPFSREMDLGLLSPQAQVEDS

[4] = test system: signaling pathways downstream of CDKs, JAK2 and FLT3 in cancer cells; settings: cited from earlier work
tumor cell lines = settings: cited from earlier work
[5] = test system: progenitor cells derived from acute myeloid leukemia (AML) and polycythemia vera patients; settings: cited from earlier work
[6] = Slurry of mixed TG02 citrate polymorphs in solvents, XRPD of recovered solids (Method B); type: physicochemical; settings: 4 days
Procedure: Method B: A homogeneous mixture of TG02 Form X (citrate), TG02 Citrate Pattern 1 of U.S. Pat. No. 9,120,815, and TG02 Citrate Pattern 2 of U.S. Pat. No. 9,120,815 was treated with solvent (20 vol.) and agitated for 4 days at different temperatures (5° C., 25° C., and 50° C.). The recovered solids were air dried and analysed by XRPD.

[7] = 40° C./75% RH, 25° C./97% RH and 60° C./ambient RH

XRPD following storage at elevated temperatures and relative humidity ([1]; 40° C./75% RH and 25° C./97% RH): remained unchanged by XRPD
XRPD following GVS analysis [2]: remained unchanged by XRPD
Hygroscopicity by GVS analysis [2]: hygroscopic
GVS uptake [2]: 3.84%
GVS maximum hysteresis ([2]; between 10-30% RH): 1.4%
XRPD following thermodynamic solubility analysis [3]: remained unchanged by XRPD
Thermodynamic solubility [3]: 230 µg/mL
Compound: CN1C/C=C/CCOc2cccc(c2)-c2ccnc(n2)Nc2cccc(c2)C1 [TG02 Citrate Pattern 2, (16E)-14-methyl-20-oxa-5,7,14,26-tetraazatetracyclo[19.3.1.1(2,6).1(8,12)]heptacosa-1(25),2(26),3,5,8(27),9,11,16,21,23-decaene]
XRPD following storage ([1]; 60° C./ambient RH, peaks remained throughout 28 days): additional peaks being present in the XRPD diffractogram after 7 days

XRPD following storage at elevated temperatures and relative humidity [1, 7]: remained unchanged by XRPD
XRPD following GVS analysis [2]: remained unchanged by XRPD
Hygroscopicity by GVS analysis [2]: slightly-hygroscopic
GVS uptake [2]: 1.0%
GVS maximum hysteresis ([2]; between 40-50% RH): 0.2%
Thermodynamic solubility [3]: 330 µg/mL
Compound: CN1C/C=C/CCOc2cccc(c2)-c2ccnc(n2)Nc2cccc(c2)C1 [TG02 Citrate Pattern 1, (16E)-14-methyl-20-oxa-5,7,14,26-tetraazatetracyclo[19.3.1.1(2,6).1(8,12)]heptacosa-1(25),2(26),3,5,8(27),9,11,16,21,23-decaene]
XRPD following thermodynamic solubility analysis [3]: form change from TG02 Citrate Pattern 1 to TG02 Citrate Pattern 2

TG02 (Citrate) Polymorph recovered (XRPD) ([6]; Acetone 20 vol., 5° C.): Form X
TG02 (Citrate) Polymorph recovered (XRPD) ([6]; Acetone 20 vol., 25° C.): Form X
TG02 (Citrate) Polymorph recovered (XRPD) ([6]; Acetone 20 vol., 50° C.): Form X
TG02 (Citrate) Polymorph recovered (XRPD) ([6]; Acetone:H2O (9:1) 20 vol., 5° C.): Pattern 2
TG02 (Citrate) Polymorph recovered (XRPD) ([6]; Acetone:H2O (9:1) 20 vol., 25° C.): Pattern 2
TG02 (Citrate) Polymorph recovered (XRPD) ([6]; Acetone:H2O (9:1) 20 vol., 50° C.): Pattern 2
TG02 (Citrate) Polymorph recovered (XRPD) ([6]; DCM:H2O (9:1) 20 vol., 5° C.): Pattern 2 + Form X
TG02 (Citrate) Polymorph recovered (XRPD) ([6]; DCM:H2O (9:1) 20 vol., 25° C.): Pattern 2
TG02 (Citrate) Polymorph recovered (XRPD) ([6]; DCM:H2O (9:1) 20 vol., 50° C.): Form X
TG02 (Citrate) Polymorph recovered (XRPD) ([6]; EtOAc 20 vol., 5° C.): Pattern 2 + Form X
TG02 (Citrate) Polymorph recovered (XRPD) ([6]; EtOAc 20 vol., 25° C.): Form X
TG02 (Citrate) Polymorph recovered (XRPD) ([6]; EtOAc 20 vol., 50° C.): Form X
TG02 (Citrate) Polymorph recovered (XRPD) ([6]; H2O 20 vol., 5° C.): Pattern 2
TG02 (Citrate) Polymorph recovered (XRPD) ([6]; H2O 20 vol., 25° C.): Pattern 2
TG02 (Citrate) Polymorph recovered (XRPD) ([6]; H2O 20 vol., 50° C.): Pattern 2
TG02 (Citrate) Polymorph recovered (XRPD) ([6]; IPA 20 vol., 5° C.): Form X
TG02 (Citrate) Polymorph recovered (XRPD) ([6]; IPA 20 vol., 25° C.): Form X
TG02 (Citrate) Polymorph recovered (XRPD) ([6]; IPA 20 vol., 50° C.): Form X
TG02 (Citrate) Polymorph recovered (XRPD) ([6]; TBME 20 vol., 5° C.): Pattern 2 + Form X
TG02 (Citrate) Polymorph recovered (XRPD) ([6]; TBME 20 vol., 25° C.): Pattern 2 + Form X
TG02 (Citrate) Polymorph recovered (XRPD) ([6]; TBME 20 vol., 50° C.): Form X
TG02 (Citrate) Polymorph recovered (XRPD) ([6]; THF:H2O (9:1) 20 vol., 5° C.): Pattern 2
TG02 (Citrate) Polymorph recovered (XRPD) ([6]; THF:H2O (9:1) 20 vol., 25° C.): Pattern 2
TG02 (Citrate) Polymorph recovered (XRPD) ([6]; THF:H2O (9:1) 20 vol., 50° C.): Pattern 2
Compound: CN1C/C=C/CCOc2cccc(c2)-c2ccnc(n2)Nc2cccc(c2)C1 [TG02 (Citrate)]

The next lines start with the compound.

Compound: CN1C/C=C/CCOc2cccc(c2)-c2ccnc(n2)Nc2cccc(c2)C1 [TG02, (16E)-14-methyl-20-oxa-5,7,14,26-tetraazatetracyclo[19.3.1.1(2,6).1(8,12)]heptacosa-1(25),2(26),3,5,8(27),9,11,16,21,23-decaene]
Inhibition of CDK1 (CDK1): inhibits
Inhibition of CDK2 (CDK2): inhibits
Inhibition of CDK5 (CDK5): inhibits
Inhibition of CDK7 (CDK7): inhibits
Inhibition of CDK9 (CDK9): inhibits
Inhibition of JAK2 (JAK2): inhibits
Inhibition of FLT3 (FLT3): inhibits
Inhibition of signaling pathways downstream of CDKs, JAK2 and FLT3 [4]: dose-dependently inhibits
Anti-proliferative activity (tumor cell lines; broad range of tumor cell lines): anti-proliferative
Cell cycle arrest and apoptosis (tumor cell lines; tumor cell lines): inducing Gi cell cycle arrest and apoptosis
Sensitivity of primary cultures to TG02 [5]: very sensitive

Compound: CN1C/C=C/CCOc2cccc(c2)-c2ccnc(n2)Nc2cccc(c2)C1 [Form X (citrate), (16E)-14-methyl-20-oxa-5,7,14,26-tetraazatetracyclo[19.3.1.1(2,6).1(8,12)]heptacosa-1(25),2(26),3,5,8(27),9,11,16,21,23-decaene]
XRPD following storage at elevated temperatures and relative humidity [1, 7]: remained unchanged by XRPD
XRPD following GVS analysis [2]: remained unchanged by XRPD
Hygroscopicity by GVS analysis [2]: non-hygroscopic
GVS uptake [2]: 0.13%
GVS maximum hysteresis ([2]; between 40-60% RH): 0.04%
Thermodynamic solubility [3]: 640 µg/mL
